Tests used:
Type in all cases: functional, cell-based
BGC-823 = experiment: Antitumor activity against human BGC823 cells by MTT method
Bcap37 = experiment: Antitumor activity against human Bcap37 cells by MTT method
PC-3 = experiment: Antitumor activity against human PC3 cells by MTT method

Row | SMILES | IC50 (BGC-823) | IC50 (Bcap37) | IC50 (PC-3)
1 | COc1cc(-c2nnc(Sc3ncnc4ccccc34)o2)cc(OC)c1OC | 34.5 µM | 23.4 µM | 5.6 µM
2 | COc1cc(-c2nnc(Sc3ncnc4c(OC)c(OC)c(OC)cc34)o2)cc(OC)c1OC | 39 µM | 20.9 µM | 1.8 µM
3 | COc1cc(-c2nnc(Sc3ncnc4c(OC)c(OC)c(OC)cc34)s2)cc(OC)c1OC | 31.2 µM | 34.7 µM | 8.7 µM
4 | CCCSc1ncnc2ccc(I)cc12 | 29 µM | 42.1 µM | 40.9 µM
5 | C=CCSc1ncnc2ccc(I)cc12 | 33.2 µM | 39.1 µM | 28.8 µM
6 | COc1cc2ncnc(Nc3cccc(Br)c3)c2cc1OC | 6.9 µM | 8.9 µM | 13.7 µM
7 | COc1cc(-c2nnc(Sc3ncnc4ccccc34)s2)cc(OC)c1OC | 61.2 µM | 50.9 µM | 19 µM
8 | COc1cccc(Sc2ncnc3ccccc23)c1 | 45.6 µM | 56.7 µM | 23.1 µM
9 | C=CCSc1ncnc2ccccc12 | 78.1 µM | 67.9 µM | 48 µM
10 | CCSc1ncnc2ccc(I)cc12 | 31.1 µM | 39 µM | 38.9 µM
11 | CCCCSc1ncnc2ccc(I)cc12 | 29 µM | 31 µM | 32.1 µM
12 | COc1cccc(Sc2ncnc3c(OC)c(OC)c(OC)cc23)c1 | 53.2 µM | 45.6 µM | 8.1 µM
13 | COc1cc(-c2nnc(Sc3ncnc4ccc(I)cc34)s2)cc(OC)c1OC | 19 µM | 21 µM | 12.2 µM
14 | COc1cc(-c2nnc(Sc3ncnc4ccc(I)cc34)o2)cc(OC)c1OC | 28.9 µM | 31 µM | 8.9 µM

From ChEMBL document CHEMBL1147840, “Synthesis and bioactivity of 4-alkyl(aryl)thioquinazoline derivatives” (Bioorg Med Chem Lett, 2007)
